Series [1] in a line: Solubilities in water (20° C.). The series is classed as physicochemical. The source says: The compound according to the invention allows therefore to increase the solubility of curcumin derivatives in aqueous solutions which in turn enables IV administrations and/or increases their bioavailability. The table below presents the solubilities of the various intermediates.
The nature of series [2]: Influence of different cyclodextrins on curcumin solubility. Conditions: FIGS. 11a and 11b. The class given is physicochemical.
The test system of series [3] is A549. Nature of the series: MTT test, overall cell growth, A549. To be noted: read-out: IC50 A549. The class given is cell-based, human. As for the experimental part:
(§1) MTT tests were performed in order to rapidly, i.e. within 5 days, measure the effect of compounds of this invention on the overall cell growth. […] The amount of formazan obtained at the end of the experiment, measured by means of a spectrophotometer, is directly proportional to the number of living cells. Optical density determination thus enabled a quantitative measurement of the effect of the investigated compounds as compared to the control condition (untreated cells) and/or to other reference compounds. Six human cancer cell lines described in Table 5 were used in the following MTT tests. These cancer cell lines cover six histological cancer types, being prostate, glioma, pancreas, colon, lung, and breast cancers. To perform the assay, cells were allowed to grow in 96-well micro-wells with a flat bottom with an amount of 100 μl of cell suspension per well with 1,000 to 4,000 cells/well depending on the cell type used. Each cell line was seeded in its appropriate culture medium. […] Each experiment was performed in sextaplicates. […] The micro-wells were subsequently incubated during 3 hours at 37° C. and centrifuged at 400 g during 10 minutes. MTT was removed and formazan crystals formed were dissolved in 100 μl DMSO. The micro-wells were shaken for 5 minutes and read on a spectrophotometer at wavelengths of 570 nm (maximal formazan absorbance). For each experimental condition, the mean optical density was calculated, allowing the determination of the percentage of remaining living cells in comparison to the control.
For orientation: Tetrazolium dyes change colour on reduction, which living cells bring about.

Series [4] relates to PC3. Kind of series: MTT test, overall cell growth, PC3. The series is classed as cell-based, human. Conditions: read-out: IC50 PC3. As for the experimental part:
as §1

Series [5] has as its system U-373MG. Kind of series: MTT test, overall cell growth, U-373MG. Conditions: read-out: IC50 U-373MG. The series is classed as cell-based, human. As for the experimental part:
as §1

Series [6] has as its system MCF-7. Kind of series: MTT test, overall cell growth, MCF-7. The series is classed as cell-based, human. To be noted: read-out: IC50 MCF-7. As for the experimental part: as §1
In series [7] the test system is LoVo. Nature of the series: MTT test, overall cell growth, LoVo. The class given is cell-based, human. To be noted: read-out: IC50 LoVo. As for the experimental part: as §1
The test system of series [8] is BxPC3. Nature of the series: MTT test, overall cell growth, BxPC3. The class given is cell-based, human. Conditions: read-out: IC50 BxPC3. As for the experimental part: as §1
In series [9] the test system is SC-VII mouse head and neck cancer cells. Nature of the series: SC-VII mouse head and neck orthotopic cancer model, survival. Conditions: IP, NDS27 20 mg/kg 3 times per day, 5 days per week, 3 weeks, cisplatin 5 mg/kg 1 time per week, control vehicle. The class given is in vivo. As for the experimental part:
To test the in vivo anti-cancer activity of the compound according to the invention, we made use of the SC-VII mouse head and neck orthotopic cancer model. SC-VII mouse head and neck cancer cells were cultivated in conventional culture medium containing supplementation in foetal calf serum and antibiotics (penicillin/streptomycin and gentamycin). 500 000 cancer cells were grafted in a serum free culture medium (50 μl) into the floor of the mouth of each mouse. 5 days after the graft, the 44 animals were divided into four groups of 11 mice. The treatments were as follows: • Group 1: mice treated with the vehicle alone (HP-beta-CD—L-Lysine solution) • Group 2: mice treated with cisplatin administered IP at the dosis of 5 mg/kg, 1 time per week during 3 weeks • Group 3: mice treated IP with the NDS27 compound according to the invention administered 3 times per day, 5 days per week during 3 weeks at the doses of 20 mg/kg • Group 4: mice treated with a combination of both treatments described for groups 2 and 3.
Mice were sacrificed when they lost 20% of their weight or when tumour reached 500 mm^2. Survival of the animals was followed and is illustrated in FIG. 8.

In series [10] the test system is PC3. Nature of the series: Cellular imaging (phase-contrast videomicroscopy), PC3. Further details: key to effect on cell morphology / effect on cell migration: +++: high effect: cell migration of most cells is drastically altered for most of the duration of the film; ++: medium effect: compound altering cell migration of an important proportion of the cells although less drastically; +: low effect: compound affecting cell migration of a small part of the cell population, or only for a limited part of the 72 h incubation; −: no effect: as compared to the control conditions, no difference is observed. Conditions: PC3, 10 μM; for GGRtreated/GGRcontrol: 72 h, global growth ratio; for effect on cell morphology: characterized by the same way as migration. The class given is cell-based, human. As for the experimental part:
(§2) Cellular imaging relied on the use of computer-assisted phase-contrast microscopy making possible to film the behavior of living cells in culture dishes for several days. […] The experiment was conducted in quadruplicates. The behaviour of the cells, in terms of morphology, growth/death and migration were thus investigated. The analysis of the films was performed by two operators, working independently. The effect on cell migration was characterized as +++ (high effect: cell migration of most cells is drastically altered for most of the duration of the film), ++ (medium effect: compound altering cell migration of an important proportion of the cells although less drastically), + (low effect: compound affecting cell migration of a small part of the cell population, or only for a limited part of the 72 h incubation), - (no effect: as compared to the control conditions, no difference is observed). The effect on cell morphology was characterized by the same way. The effect on the overall growth was measured by counting the number of cells on the first (0 h) and the last image (72 h) of each film. The global growth ratio (GGR) was then deduced by dividing the number of cells on the last image by the number of cells on the first image. The ratio […], was further calculated thereby obtaining a value that describes the effect of compounds of the present invention on the overall cell growth.

The test system of series [11] is U-373 MG. Nature of the series: Cellular imaging (phase-contrast videomicroscopy), U-373 MG. To be noted: 10 μM, 72 h, global growth ratio. The series is classed as cell-based, human. As for the experimental part: as §2
The test system of series [12] is isolated neutrophils stimulated by phorbol myristate acetate (PMA). Kind of series: ROS production by PMA-stimulated isolated neutrophils (chemiluminescence). The class given is cell-based. To be noted: FIG. 16. As for the experimental part: (§3) The ROS production and the release of MPO by activated neutrophils were measured by chemiluminescence and ELISA techniques, respectively (Franck et al., 2008, Physiol. Res. 57(4):577-87). The activity of purified MPO was measured by using an original method called […] (specific immune extraction followed by enzymatic detection) allowing the study of drug interaction with the enzyme without interferences of the medium (Franck et al., 2006, J Vet Diagn Invest, 18(4):326-34).

For series [13] the test system is unchanged. Nature of the series: MPO release by activated neutrophils (ELISA). The class given is cell-based. To be noted: FIG. 18. As for the experimental part: as §3
(ELISA stands for enzyme-linked immunosorbent assay.)

The subject of series [14] is purified MPO. Kind of series: Activity of purified MPO (SIEFED). The class given is biochemical. To be noted: FIG. 17. As for the experimental part: as §3
Series [15] can be described thus: physchem. To be noted: aqueous with cosolvent or surfactant or cyclodextrin.

Values after ≈ are worked out from the molar mass of the structure shown. Like-named read-outs stand apart in the source and are kept apart here.

A word on the solubility: it is how much of the substance goes into solution per volume. In general, IC50 refers to the concentration at which inhibition is half-maximal.

Turning to `CC(O)COC[C@H]1O[C@@H]2O[C@H]3[C@H](O)[C@@H](O)[C@@H](O[C@H]4[C@H](O)[C@@H](O)[C@@H](O[C@H]5[C@H](O)[C@@H](O)[C@@H](O[C@H]6[C@H](O)[C@@H](O)[C@@H](O[C@H]7[C@H](O)[C@@H](O)[C@@H](O[C@H]8[C@H](O)[C@@H](O)[C@@H](O[C@H]1[C@H](O)[C@H]2O)O[C@@H]8COCC(C)O)O[C@@H]7COCC(C)O)O[C@@H]6COCC(C)O)O[C@@H]5COCC(C)O)O[C@@H]4COCC(C)O)O[C@@H]3COCC(C)O` (stereo partly drawn) [HP-beta-CD, hydroxypropyl-beta-cyclodextrin], in series [1], the solubility is 500 mg/mL (≈ 324 mM). For the same molecule, the “effect of the cyclodextrin on curcumin solubility” value in series [2] was “clearly increase the solubility of curcumin”.

In series [1] (20 °C, water), `NCCCC[C@H](N)C(=O)O` [Lysine] returned a solubility of 640 mg/mL (≈ 4380 mM).

Regarding `COc1cc(CCC(=O)CC(=O)CCc2ccc(O)c(OC)c2)ccc1O` [Tetrahydrocurcumin, tetrahydrocurcumin], the IC50 is more than 10 µM in series [3] (Homo sapiens, A549, 72 h); more than 10 µM in [4] (Homo sapiens, PC-3, 72 h); more than 10 µM in [5] (Homo sapiens, U373 MG, 72 h); more than 10 µM in [6] (Homo sapiens, MCF7, 72 h); more than 10 µM in series [7] (Homo sapiens, LoVo, 72 h); more than 10 µM in series [8] (Homo sapiens, BXPC-3, 72 h).

As for `N.N.[Cl][Pt][Cl]` [cisplatin], the “T/C index (ratio of median survival of treated mice to control group)” value in series [9] came to 163%.

Take `COc1cc(/C=C/C(=O)CC(=O)/C=C/c2ccc(O)c(OC)c2)ccc1O` [curcumin]: the solubility in [1] (Water (20° C.), read-out: solubility) is approximately 0.0003 mg/mL (≈ 0.000814 mM); in series [15], not above 100 mM. In addition, the IC50 was more than 10 µM in series [3] (Homo sapiens, A549, MTT, 72 hours, lung cancer cell line); more than 10 µM in series [4] (Homo sapiens, PC-3, MTT, 72 hours, prostate cancer cell line); 8.1 µM in [5] (Homo sapiens, U373 MG, MTT, 72 hours, glioma cell line); more than 10 µM in series [6] (Homo sapiens, MCF7, MTT, 72 hours, breast cancer cell line); 9.3 µM in [7] (Homo sapiens, LoVo, MTT, 72 hours, colon cancer cell line); 9.5 µM in [8] (Homo sapiens, BXPC-3, MTT, 72 hours, pancreas cancer cell line). Further, the GGRtreated/GGRcontrol in [10] came to 0.5; in [11], 0.2. Besides, the “effect on cell morphology” value in [10] (filmed 72 h) is given as “+”. Also, the “inhibitory effect on ROS production / release” value in series [12] was “dose-dependent inhibitory effects”. The “effect on MPO release by activated neutrophils” value in [13] was “dose-dependent inhibitory effects”. Also, in series [14], the “inhibitory effect on purified MPO activity” value is given as “dose-dependent inhibitory effects”.

Curcumin Lysinate: the IC50 was more than 10 µM in [3] (MTT, 72 hours, lung cancer cell line); more than 10 µM in series [4] (MTT, 72 hours, prostate cancer cell line); 10 µM in series [5] (MTT, 72 hours, glioma cell line); more than 10 µM in series [6] (MTT, 72 hours, breast cancer cell line); more than 10 µM in series [7] (MTT, 72 hours, colon cancer cell line); more than 10 µM in series [8] (MTT, 72 hours, pancreas cancer cell line). In addition, the figures for the GGRtreated/GGRcontrol in series [10] and in [11] were 0.4 and 0.2, respectively. Besides, the “effect on cell migration” value in series [10] (filmed 72 h) is on record as “++”. The “effect on cell morphology” value in [10] (filmed 72 h) is given as “++”. Further, the “inhibitory effect on ROS production / release” value in series [12] is listed as “dose-dependent inhibitory effects”. For the same molecule, the “effect on MPO release by activated neutrophils” value in [13] is “dose-dependent inhibitory effects”. For the same molecule, the “inhibitory effect on purified MPO activity” value in [14] is listed as “dose-dependent inhibitory effects”.

As to “hydroxypropyl-beta-cyclodextrin complex of curcumin lysinate [NDS27]”, the solubility in series [1] was 10 mg/mL.

Values taken from patent US8772265B2, “Water soluble curcumin compositions for use in anti-cancer and anti-inflammatory therapy” (Universite Libre de Bruxelles, priority 2008, dated 2014).
